Consider two molecules from ChEMBL document CHEMBL3745656, “Discovery of Inhibitors That Overcome the G1202R Anaplastic Lymphoma Kinase Resistance Mutation” (J Med Chem, 2015).

A short description of data set [1]: in vivo. To be noted: mouse, brain, iv, 2 mg/kg.
Description: Drug level in mouse brain at 2 mg/kg, iv after 8 hrs
Data set [2] in a line: in vivo. To be noted: mouse, brain, po, 10 mg/kg.
Description: Drug level in mouse brain at 10 mg/kg, po after 8 hrs
Data set [3] in a line: Plasma concentration in mouse at 10 mg/kg, po after 8 hrs. The data set is classed as ADME, organism-based.
The nature of data set [4]: Plasma concentration in mouse at 2 mg/kg, iv after 8 hrs. The format is ADME, organism-based.
Data set [5] in a line: Plasma concentration in mouse at 10 mg/kg, po after 2 hrs. The format is ADME, organism-based.
Data set [6] in a line: Plasma concentration in mouse at 2 mg/kg, iv after 2 hrs. The format is ADME, organism-based.

Molecules are shown by their SMILES.

For `CCc1cc2c(cc1-c1cnn(CC(=O)N(C)C)c1)C(C)(C)c1[nH]c3cc(C#N)ccc3c1C2=O`, the concentration at 8 h in the data set “in vivo [1]” and in “in vivo [2]” was 4 nM each time.
Regarding `CCc1cc2c(cc1-c1cnn(CCCN(C)C)c1)C(C)(C)c1[nH]c3cc(C#N)ccc3c1C2=O`, the concentration at 8 h was 170 nM in data set [3], 50 nM in data set [4] and 80 nM in the data set “in vivo [1]”. For the same molecule, the concentration at 2 h in data set [5] and in data set [6] was 210 nM each time.
